Values after ≈ are worked out from the molar mass of the structure shown. Residues, ends and D or L forms follow the SMILES beside them.

The test system of data set [1] is P. auruginosa LCGE (gentamincin-resistant strain). Briefly: microbe, parasite or virus in culture. As for the experimental part: (§1) Minimal inhibitory concentration (MIC) assays were performed as described previously. Briefly, after incubation overnight in Mueller-Hinton (MH) broth at 37°C, the bacteria were grown to exponential growth phase and diluted to approximately 1×10^5 CFU/ml. The peptides were dissolved in 0.2% bovine serum albumin (BSA) containing 0.01% (v/v) acetic acid, and they were then added to each well of a 96-well plates at a final concentration ranging from 0.25 to 128 µM. Each well contained a total volume of 100 µL (50 µL of inoculums and 50 µL of peptide-containing solution). The MICs were determined as the lowest concentration of peptide that prevented visible turbidity by visual inspection after incubation at 37°C for 16–18 h. Independent experiments were carried out at least three times. Uninoculated MH broth was used as a negative control and cultures without added peptides served as the positive control. Minimal bactericidal concentration (MBC) assay was performed following MIC assay. At the end of MIC assay 10 µL aliquots of the medium were taken from peptide-containing wells with no visible bacterial growth. These are plated on MH agar, incubated for 18 h to allow colony growth. The MBC was defined as the lowest peptide concentration resulting in no bacterial growth in the media. Each assay was performed at least three times.
(§2) The antimicrobial activity of the RI16 and mutant peptides against Gram-negative and Gram-positive bacteria were determined.

Data set [2] relates to P. auruginosa LCCE (ceftazidime-resistant strain). Briefly: microbe, parasite or virus in culture. The method, then:
as §1, §2

Data set [3] concerns P. auruginosa LCCI (ciprofloxacin-resistant strain). Briefly: microbe, parasite or virus in culture. As for the experimental part: as §1, §2
In a further data set the test system is E. coli 25922. Briefly: microbe, parasite or virus in culture. Format: cell-based, Escherichia coli. The method, then:
as §1

The subject of another data set is Female KM mice. In words: In vivo toxicity. Set-up: species or system Chinese Kun Ming (KM) mice. Conditions: intraperitoneal injection, 3, 6, 30 or 60 mg per kg of body weight, 10/group. The method, then: The in vivo toxicity of the peptide was also evaluated. Female KM mice (weighing 20 to 25 g) were injected intraperitoneally with 0.1 ml saline and 3, 6, 30, and 60 mg peptide per kg of body weight. The animals (10/group) were directly inspected for adverse effects, such as weight loss, piloerection, motility and mortality for 7 days thereafter. All mice were allowed free water and a maintenance diet in a 12-hour light/dark cycle. All cages contained wood shavings and bedding. The experiment was carried out in strict accordance with the recommendations of the Guide for the Care and Use of Laboratory Animals of Northeast Agricultural University, and the study protocol was approved by Northeast Agricultural University Institutional Animal Care and Use Committee. The mice were monitored for a week and no mice died during the experiment.

The subject of a further data set is S. epidermidis 12228. In words: microbe, parasite or virus in culture. It is filed as cell-based, Staphyfococcus epidermidis. The method, then: as §1
Another data set concerns S. aureus 29213. In words: microbe, parasite or virus in culture. It is filed as cell-based, Staphylococcus aureus. As for the experimental part: as §1
The subject of the next data set is P. auruginosa 21630. Briefly: microbe, parasite or virus in culture. Format: cell-based, Pseudomonas aeruginosa. As for the experimental part: as §1
In another data set the test system is P. auruginosa LC. In words: microbe, parasite or virus in culture. Format: cell-based, Pseudomonas aeruginosa. The method, then: as §1
In the next data set the test system is P. auruginosa 10419. In words: microbe, parasite or virus in culture. It is filed as cell-based, Pseudomonas aeruginosa. The method, then:
as §1

A further data set deals with P. aeruginosa 27853. In words: microbe, parasite or virus in culture. Format: cell-based, Pseudomonas aeruginosa. The method, then:
as §1

For another data set, the system named is P. auruginosa 21625. In words: microbe, parasite or virus in culture. It is filed as cell-based, Pseudomonas aeruginosa. The method, then:
as §1

The next data set deals with S. typhimurium 7731. Briefly: microbe, parasite or virus in culture. It is filed as cell-based, Salmonella typhimurium. As for the experimental part:
as §1

Data set [4] relates to P. aeruginosa ATCC27853 biofilms. Briefly: Biofilm biomass assay and FE-SEM imaging. It is filed as cell-based, Pseudomonas aeruginosa. The method, then:
A static abiotic solid surface assay was used to analyze biofilm formation as described before, with minor modification. Briefly, overnight cultures of P. aeruginosa ATCC27853 were diluted 1∶100 in fresh medium, added (500 µL) to wells of 12-well culture plates, and grown for 24 h at 37°C. Planktonic cells and loosely attached cells were removed, and wells were then refilled with 500 µL of fresh broth in the absence or presence of different concentrations of peptides. After incubation the biofilms were stained with 0.1% (w/v) crystal violet. Ethanol (95%, v/v) was added to each well, and absorbance was measured at 600 nm. The experiments were done at least three times in duplicate, and the data was expressed as mean ± standard deviations.
For microscopic observation of the biofilm, sterilized coverslips were placed at the bottom of a 12-well plate. After incubation, cells were fixed with 2.5% glutaraldehyde overnight. The samples were then dehydrated through a graded series of ethanol (50%, 70%, 90%, and 100%), followed by critical–point drying, gold sputtering, and examination using an FE-SEM (Hitachi, Japan).

With `CC[C@H](C)[C@H](NC(=O)[C@H](CCCCN)NC(=O)[C@H](CCCCN)NC(=O)[C@H](CC(C)C)NC(=O)[C@H](CCCNC(=N)N)NC(=O)[C@H](CCCCN)NC(=O)[C@H](CCCNC(=N)N)NC(=O)[C@H](Cc1c[nH]c2ccccc12)NC(=O)[C@H](CCCCN)NC(=O)[C@H](CCCCN)NC(=O)[C@H](CCCNC(=N)N)NC(=O)[C@H](CC(C)C)NC(=O)[C@H](CCCNC(=N)N)NC(=O)[C@H](CCCNC(=N)N)NC(=O)[C@H](Cc1ccccc1)NC(=O)[C@@H](N)CCCNC(=N)N)C(N)=O` [T9W] (H-RFRRLRKKWRKRLKKI-NH2), the MIC was determined as 4 µM (≈ 9.07 µg/mL) in [1]; 4 µM (≈ 9.07 µg/mL) in data set [2]; 2 µM (≈ 4.54 µg/mL) in data set [3]; 64 µM (≈ 145 µg/mL) in the data set with E. coli 25922 (25922); 64 µM (≈ 145 µg/mL) against S. epidermidis 12228 (12228); 128 µM (≈ 290 µg/mL) in the data set on S. aureus 29213 (29213). For the same compound, the MIC in the data set with P. auruginosa 21630 was found to be 4 µM (≈ 9.07 µg/mL); against P. auruginosa LC, 1 µM (≈ 2.27 µg/mL); against P. auruginosa 10419 it was 4 µM (≈ 9.07 µg/mL); against P. aeruginosa 27853 (27853), 2 µM (≈ 4.54 µg/mL); in the data set on P. auruginosa 21625 it was 4 µM (≈ 9.07 µg/mL); with S. typhimurium 7731 (7731), 128 µM (≈ 290 µg/mL). For the same compound, the MBC is 8 µM (≈ 18.1 µg/mL) in [1] (18 h); 8 µM (≈ 18.1 µg/mL) in data set [2] (18 h); 4 µM (≈ 9.07 µg/mL) in data set [3] (18 h); >128 µM against E. coli 25922 (25922, 18 h); >128 µM against S. epidermidis 12228 (12228, 18 h); >128 µM in the data set on S. aureus 29213 (29213, 18 h). Also, the MBC is 4 µM (≈ 9.07 µg/mL) in the data set with P. auruginosa 21630 (18 h); 2 µM (≈ 4.54 µg/mL) in the data set with P. auruginosa LC (18 h); 4 µM (≈ 9.07 µg/mL) in the data set with P. auruginosa 10419 (18 h); 2 µM (≈ 4.54 µg/mL) against P. aeruginosa 27853 (27853, 18 h); 4 µM (≈ 9.07 µg/mL) against P. auruginosa 21625 (18 h); >128 µM in the data set with S. typhimurium 7731 (7731, 18 h). Also, the “Signs of toxicity (weight loss, piloerection, motility)” value in the data set with Female KM mice (7 days, data not shown) was “no signs of toxicity”. Further, in the data set on Female KM mice (at least 7 days), the Survival entry is “all survived”.
With “LL37: the only host defense peptide encoded by the human cathelicidin gene, which eliminates bacteria by targeting membranes (LLGDFFRKSKEKIGKEFKRIVQRIKDFLRNLVPRTES; Antibacterial peptide LL-37; UniProt P49913 134-170, looked up)”, the “Biofilm biomass of pre-formed biofilms” value in data set [4] (P. aeruginosa 27853, 24 h treatment, various concentrations, crystal violet, absorbance 600 nm, relative to untreated control, Fig. 6A) is recorded as “reduced”. For the same compound, in data set [4] (P. aeruginosa 27853 biofilms, peptides at 4×MIC, Fig. 6B), the “Cell densities in the biofilms (FE-SEM)” value was “significantly reduced”.

Values taken from publication PMC4262413, “Importance of Tryptophan in Transforming an Amphipathic Peptide into a Pseudomonas aeruginosa-Targeted Antimicrobial Peptide” (PLoS ONE, 2014).
